Assay results: patent publication US20210277102A1, “COMPOSITIONS AND METHODS FOR TREATING A TUMOR SUPPRESSOR DEFICIENT CANCER” (BETH ISRAEL DEACONESS MEDICAL CENTER, INC., priority 2016, published 2021)
“Also recorded” adds a separate entry of the source.

Tested on: Pten^pc−/−; Zbtb7a^pc−/− prostate tumors
Assay: In vivo drug and antibody treatment of Pten^pc−/−; Zbtb7a^pc−/− mice (MRI, flow cytometry, histology, western blot, qRT-PCR)
Design: species or system mouse
Protocol: Mice were allocated at random to experimental groups and studies were performed in an unblended manner. For treatment with the CXCR2 antagonist, SB225002 (Cayman Chemical #13336) was dissolved in DMSO (10 mg/ml) and diluted in vehicle (0.9% NaCl, 0.3% Tween 80) for in vivo administration. Mice (4 months of age) were treated daily for 10 days by intraperitoneal injection (5 mg/kg) and prostate tumor tissue (anterior lobes) was subjected to Flow Cytometry and histological analysis. For MRI analysis, mice (4 months of age) were treated daily for 21 days (Pten^pc-/-; Zbtb7a^pc-/-), for 14 days (Pten^pc-/-; Trp53^pc-/-) or for 14 days (Pten^pc-/-; Pml^pc-/-) by intraperitoneal injection (5 mg/kg). For depletion of Gr-1+/CD11b+ cells, Ly6G-depletion antibody (1A8, BioXcell) and control Rat IgG2a antibody (BioXcell) were diluted in phosphate-buffered saline (PBS) for in vivo administration. Mice (4 months of age) were treated every other day for 10 days by intraperitoneal injection (200-300 μg/mouse). InVivoMAb anti-mouse Ly6G/Ly6C (Gr-1) antibody, clone RB6-8C5 (BE0075, BioXcell), and control Rat IgG2b antibody (BE0090, BioXcell) were diluted in PBS and Pten^pc-/-; Trp53^pc-/- mice were treated every other day for 14 days by intraperitoneal injection (200 μg/mouse). For neutralization of CXCL5, anti-Mouse CXCL5 antibody (Leinco Technologies) and control Rat IgG2a antibody (BioXcell) were diluted in PBS and injected every other day for 21 days by intraperitoneal injection (20 μg/mouse). Tumor volume quantification was performed by using VivoQuant and Image J software. All mouse prostate MRI imaging analysis was performed at Small Animal Imaging Core at BIDMC and acquired on an […] Model M2 1T tabletop scanner. For western blotting, cell lysates were prepared by homogenizing tumor tissue with NP40 Buffer (Boston Bioproducts) supplemented with protease (Roche) and HALT phosphatase inhibitor cocktails (Thermo Scientific) and subsequently subjected to SDS-Gel separation (Invitrogen) and western blotting. The following antibodies were used for western blotting: […] (AC-74; Sigma), CXCL5 (R & D Systems #AF433), pIRAK4 (Cell Signaling Technology #11927S), IRAK4 (Cell Signaling Technology #4363P), IκBα (Cell Signaling Technology #4812S), Zbtb7a (hamster anti-Zbtb7a clone 13E9), PTEN (Cell Signaling Technology #9559S), p53 (Cell Signaling Technology #2524S), p21 (Santa Cruz Biotechnology sc-6246) and HSP90 (BD Biosciences BDB610419). Western blots were quantified using Image J software. For immunohistochemistry, tissues and organoids were fixed in 4% paraformaldehyde and embedded in paraffin in accordance with standard procedures. Embedding and hematoxylin and eosin staining of sections were performed by the Histology Core at BIDMC and analyzed by a pathologist. Sections were stained with anti-LY6G (BioLegend #127603), anti-CD45R (Abcam #ab64100), anti-CD3 (Abcam #ab5690), anti-beta Catenin (Abcam #32572), anti-phospho ERK (Cell Signaling Technology #4376), anti-phospho AKT Ser473 (Cell Signaling Technology #4060) and anti-Ki67 (Thermo Scientific #RM-9106) according to manufacturer's recommendations. For Flow Cytometry, spleen and lymph node single cell suspensions were prepared by mashing the tissue in 2% FBS/PBS. Tumor and control prostate tissue (from anterior lobes) single cell suspension was prepared by mincing the tumor and digestion with Collagenase Type I (Life Technologies #17018029) in 10% DMEM (GIBCO) for 1 hr at 37° C. […]

## O=C(Nc1ccc([N+](=O)[O-])cc1O)Nc1ccccc1Br [SB225002]
Zbtb7a^pc−/− mice, intraperitoneal injection, vs vehicle
  tumor growth (tumor volume by MRI): significantly suppressed the tumor growth; also recorded: significant inhibition of tumor growth
Zbtb7a^pc−/− prostate tumors after treatment
  intra-tumoral Gr-1+/CD11b+ cells (flow cytometry): decrease of Gr-1+/CD11b+ cells
Zbtb7a^pc−/− tumors, anterior prostate lobes
  tumor burden (histological analysis): reduced tumor burden; also recorded: significantly diminished tumor involvement
Zbtb7a^pc−/− tumors, normalized with β-actin, vs vehicle
  IκBα protein level (western blot): increased IκBα protein levels
Zbtb7a^pc−/− tumors, vs vehicle
  expression of CXCL5 in the prostate tumors: elevated expression of CXCL5
